What was measured:
[1] = biological target: T1, recombinant catalytic a domain of human PDI A1 (PDIa) (Homo sapiens, UniProt P07237); assay: Insulin aggregation assay (PDIa reductase activity); type: biochemical; conditions: compound 750 μM + PDIa 500 μM, diluted 100-fold
T1 construct: made in house; host or cells: Escherichia coli BL21-Gold (DE3)

[2] = biological target: T1, recombinant catalytic a domain of human PDI A1 (PDIa); assay: as above; type: biochemical; conditions: compound 750 μM
PC12 mHTT^Q103 cells = conditions: Hoffstrom et al., 2010; read-out: EC50, rescue of PC12 mHTT^Q103 cells (previously identified inhibitor); cited from earlier work
[3] = Mouse plasma stability assay; type: in vitro ADME; conditions: compound 1.0 μM
Experimental: Test compound (1 μM) was incubated at 37° C. for up to 120 minutes in mouse plasma. At 0, 15, 30, 60, and 120 minute intervals an 100 μL aliquot was taken and quenched with 200 μL acetonitrile (ACN) containing internal standard. Following completion of the experimentation, the samples were analyzed by LC-MS/MS. The half-life (t1/2) was calculated using the following equation: t1/2=0.693/k, where, k is the elimination rate constant of test compounds obtained by fitting the data to the equation: C=initial×exp (−k×t). Results were reported as peak area ratios of analyte to internal standard.
The microsome stability assay, plasma stability assay, and plasma protein binding assay were each performed by Alliance Pharma, Inc. (Malvern, Pa.).

T1 sequence (P07237 with tags, fused parts or gaps): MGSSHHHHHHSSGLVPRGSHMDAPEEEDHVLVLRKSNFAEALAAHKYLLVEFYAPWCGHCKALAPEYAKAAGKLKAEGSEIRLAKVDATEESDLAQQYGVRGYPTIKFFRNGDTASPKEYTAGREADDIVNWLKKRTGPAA

| Compound | PDI's enzymatic activity after dilution of pre-formed complex [1] | inhibition of PDI's reduction of insulin without dilution [2] | EC50 (PC12 mHTT^Q103 cells) | % Remaining after 2-hour incubation [3] | Elimination rate constant (k) [3] | half-life at 1 μM ([3]; read-out: Half-life (t1/2) (converted)) |
| --- | --- | --- | --- | --- | --- | --- |
| COC(=O)C1(C)c2[nH]c3ccccc3c2CCN1C(=O)CCl (stereo not drawn) [16F16, reference compound] | still inhibited | able to inhibit | 1000 nM |  |  |  |
| CCOC(=O)[C@H](CCc1ccccc1)N[C@@H](C)C(=O)N1CCC[C@H]1C(=O)O [Enalapril, reference compound] |  |  |  | 4.3% | 0.0201 | 36 min |

Reference: patent publication US20180092908A1, “SMALL MOLECULE OXIDIZERS OF PDI AND THEIR USE” (THE TRUSTEES OF COLUMBIA UNIVERSITY IN THE CITY OF NEW YORK, priority 2015, published 2018)
